The target of this experiment is CDK2 (UniProt P24941). As to the kind of experiment: Enzyme Assay.
For the compound `O=C1Nc2cc(Br)ccc2/C1=C/c1[nH]cc2c1CCNC2=O`, the IC50 – broadly, the concentration that gives 50% inhibition – was above 10000 nM. The value for `O=C1Nc2cc(Cl)ccc2/C1=C/c1[nH]cc2c1CCOC2=O` was 410 nM. The value for `O=C1Nc2cc(-c3cccnc3)ccc2/C1=C/c1[nH]cc2c1CCOC2=O` was 5690 nM; that for `COc1ccccc1-c1ccc2c(c1)NC(=O)/C2=C\c1[nH]cc2c1CCOC2=O` was above 10000 nM; that for `O=C1Nc2cc(-c3cccc(C(=O)O)c3)ccc2/C1=C/c1[nH]cc2c1CCOC2=O` was 5360 nM.

The compound `O=C1Nc2ccc(C(=O)O)cc2/C1=C/c1[nH]cc2c1CCOC2=O` registered an IC50 of 4 nM.

Consider `O=C1Nc2ccc(-c3ccccc3)cc2/C1=C/c1[nH]cc2c1CCOC2=O`, for which the IC50 was 3840 nM. Consider `O=C1Nc2cc(-c3ccccc3)ccc2/C1=C/c1[nH]cc2c1CCNC2=O`, for which the IC50 was 6010 nM.

Consider `CC(C)NS(=O)(=O)c1ccc2c(c1)/C(=C/c1[nH]cc3c1CCOC3=O)C(=O)N2`, for which the IC50 amounted to 60 nM. For `COc1ccc2c(c1)NC(=O)/C2=C\c1[nH]cc2c1CCOC2=O` the value was 1550 nM; for `O=C1Nc2ccc(S(=O)(=O)N3CCc4cc(Br)ccc43)cc2/C1=C/c1[nH]cc2c1CCOC2=O`, 2860 nM; for `Cc1cccc2c1/C(=C/c1[nH]cc3c1CCOC3=O)C(=O)N2`, 270 nM. For `CN(C)S(=O)(=O)c1ccc2c(c1)/C(=C/c1[nH]cc3c1CCNC3=O)C(=O)N2` the value was 100 nM; for `O=C1Nc2cc(Cl)ccc2/C1=C/c1[nH]cc2c1CCNC2=O`, 7230 nM. As to `O=C1Nc2ccc(-c3ccccc3)cc2/C1=C/c1[nH]cc2c1CCNC2=O`, the IC50 came to 3200 nM. The value for `O=C1Nc2ccc(Br)cc2/C1=C/c1[nH]cc2c1CCNC2=O` was 530 nM; that for `NS(=O)(=O)c1ccc2c(c1)/C(=C/c1[nH]cc3c1CCNC3=O)C(=O)N2` was below 5 nM; that for `COc1ccc2c(c1)/C(=C/c1[nH]cc3c1CCNC3=O)C(=O)N2` was 290 nM.

Compound `O=C1Nc2ccc(S(=O)(=O)N3CCCc4ccccc43)cc2/C1=C/c1[nH]cc2c1CCOC2=O` had an IC50 of 550 nM. `O=C1Nc2ccc(F)cc2/C1=C/c1[nH]cc2c1CCOC2=O` registered an IC50 of 80 nM.

`O=C1Nc2ccc(S(=O)(=O)N3CCc4ccccc43)cc2/C1=C/c1[nH]cc2c1CCOC2=O`: the IC50 worked out at 350 nM. The value for `CC(=O)Nc1ccc2c(c1)NC(=O)/C2=C\c1[nH]cc2c1CCOC2=O` was 7860 nM; that for `Cc1c(Cl)ccc2c1/C(=C/c1[nH]cc3c1CCOC3=O)C(=O)N2` was 310 nM.

The compound `CN(C)C(=O)c1ccc2c(c1)/C(=C/c1[nH]cc3c1CCNC3=O)C(=O)N2` returned an IC50 of 90 nM. For `O=C1Nc2ccc(C(=O)N3CCCC3)cc2/C1=C/c1[nH]cc2c1CCNC2=O` the value was 70 nM; for `O=C1Nc2ccc(S(=O)(=O)Nc3ccccc3)cc2/C1=C/c1[nH]cc2c1CCOC2=O`, 40 nM; for `O=C1Nc2ccc(Cl)cc2/C1=C/c1[nH]cc2c1CCOC2=O`, 90 nM.

In turn, `O=C1Nc2ccc3c(c2/C1=C/c1[nH]cc2c1CCOC2=O)CCOS3(=O)=O` yielded an IC50 of 130 nM.

`O=C1Nc2ccc(-c3cccc(C(=O)O)c3)cc2/C1=C/c1[nH]cc2c1CCOC2=O` yielded an IC50 of 6710 nM. Consider `O=C1Nc2cc(C(=O)O)ccc2/C1=C/c1[nH]cc2c1CCOC2=O`, for which the 50% inhibitory concentration (IC50) was determined as 1080 nM. For the compound `O=C1Nc2cc(Br)ccc2/C1=C/c1[nH]cc2c1CCOC2=O`, the IC50 was 970 nM.

The compound `O=C1Nc2cccc(CCO)c2/C1=C/c1[nH]cc2c1CCOC2=O` showed a concentration for half-maximal inhibition (IC50) of 30 nM.

On to `O=C1Nc2cc(-c3ccc(F)cc3)ccc2/C1=C/c1[nH]cc2c1CCOC2=O`, for which the IC50 is 1060 nM. As to `O=C1Nc2c(Cl)cccc2/C1=C/c1[nH]cc2c1CCOC2=O`, the IC50 was found to be 2580 nM. For `CNS(=O)(=O)c1ccc2c(c1C)/C(=C/c1[nH]cc3c1CCOC3=O)C(=O)N2` the value was 5.5 nM; for `O=C1Nc2cc(-c3ccccc3)ccc2/C1=C/c1[nH]cc2c1CCOC2=O`, above 10000 nM. The compound `CN(C)S(=O)(=O)c1ccc2c(c1)/C(=C/c1[nH]cc3c1CCOC3=O)C(=O)N2` had an IC50 of 30 nM. The value for `COc1ccc2c(c1)/C(=C/c1[nH]cc3c1CCOC3=O)C(=O)N2` was 40 nM; that for `COc1ccc(-c2ccc3c(c2)NC(=O)/C3=C\c2[nH]cc3c2CCOC3=O)cc1` was 1000 nM; that for `O=C1Nc2ccc(S(=O)(=O)Nc3cccc(Cl)c3)cc2/C1=C/c1[nH]cc2c1CCOC2=O` was 490 nM.

`Cc1c(Br)ccc2c1/C(=C/c1[nH]cc3c1CCOC3=O)C(=O)N2`: the IC50 came to 160 nM. For `O=C1Nc2cccc(CCO)c2/C1=C/c1[nH]cc2c1CCNC2=O` the value was 450 nM; for `O=C1Nc2ccc(Br)cc2/C1=C/c1[nH]cc2c1CCOC2=O`, 240 nM.

With `CNS(=O)(=O)c1ccc2c(c1)/C(=C/c1[nH]cc3c1CCOC3=O)C(=O)N2`, the IC50 worked out at 5 nM.

Compound `COc1cccc(-c2ccc3c(c2)NC(=O)/C3=C\c2[nH]cc3c2CCOC3=O)c1` had an IC50 above 10000 nM. For `CN(c1cccc(Cl)c1)S(=O)(=O)c1ccc2c(c1)/C(=C/c1[nH]cc3c1CCOC3=O)C(=O)N2` the value was 9950 nM; for `NS(=O)(=O)c1ccc2c(c1)/C(=C/c1[nH]cc3c1CCOC3=O)C(=O)N2`, 10 nM; for `O=C1Nc2ccc(C(=O)N3CCOCC3)cc2/C1=C/c1[nH]cc2c1CCNC2=O`, 560 nM.

Turning to `O=C1Nc2ccc(F)cc2/C1=C/c1[nH]cc2c1CCNC2=O`, the IC50 came out at 300 nM. For `O=C1Nc2ccc(S(=O)(=O)N3CCc4ccccc4C3)cc2/C1=C/c1[nH]cc2c1CCOC2=O` the value was 730 nM; for `O=C1Nc2cc(F)ccc2/C1=C/c1[nH]cc2c1CCOC2=O`, 360 nM.

For the origin of these results see the Kinase Knowledgebase extract (Sharma et al. 2016).
